One assay concerns the target phosphorylated FGFR3 (Homo sapiens (Human), UniProt P22607). Description: FGFR Enzyme Binding Assay (HTRF tracer displacement), FGFR3. Conditions: 5 nM phosphorylated FGFR3, 60 minute incubation at 22° C.; read-out: FGFR3 Enz Binding IC50. As to the method: (§1) The potency of compounds inhibiting human isoforms of FGFR kinase was determined using Life Technologies' Homogeneous Time Resolved Fluorescence (HTRF)-based binding assay technology. An incubation was conducted with either 5 nM dephosphorylated FGFR1 (Array Biopharma, p1702; SEQ ID NO: 1, amino acids 458 to 765, dephosphorylated by co-expression with PTP1b (protein tyrosine phosphatase 1B)), 5 nM dephosphorylated FGFR2 (Life Technologies, Cat. No. PV4106 that had been dephosphorylated with Lambda protein phosphatase (New England Biolabs, cat #P0753)) or 5 nM phosphorylated FGFR3 (Array Biopharma, p1836; SEQ ID NO: 5, amino acids 449 to 759), 50 nM Kinase Tracer 236 (Life Technologies Cat. No. PR9078A), 2 nM Biotin-anti-6HIS (Life Technologies Cat. No. PV6090) and 2 nM Europium-Streptavidin (Life Technologies Cat. No. PV6025) along with test compound in a buffer consisting of 50 mM HEPES ((4-(2-hydroxyethyl)-1-piperazineethanesulfonic acid, pH 7.5), 5 mM MgCl2, 0.005% Triton X-100, 1 mM DTT, 1 mM NaVO4 and 2% DMSO in a final volume of 12 μL Compounds were typically prepared as a 3-fold or 4-fold serial dilution in DMSO and added to the assay to give the appropriate final concentration. After a 60 minute incubation at 22° C., the extent of tracer displacement was determined using a PerkinElmer EnVision multimode plate reader via HTRF dual wavelength detection, and the percent of control (POC) was calculated using a ratiometric emission factor. One hundred POC was determined using no test compound, and 0 POC was determined in the presence of 1 μM of an appropriate control inhibitor. A 4-parameter logistic curve was fit to the POC values as a function of the concentration of compound, and the IC50 value was the point where the best-fit curve crossed 50 POC.
A general note: TR-FRET usually uses a lanthanide donor and a delayed reading to cut background.

The next assay has as its target dephosphorylated FGFR1 (Homo sapiens (Human), UniProt P11362). As to the kind of experiment: FGFR Enzyme Binding Assay (HTRF tracer displacement), FGFR1. Conditions: 5 nM dephosphorylated FGFR1, 60 minute incubation at 22° C.; read-out: FGFR1 Enz Binding IC50. On the procedure:
as §1

A further assay addresses FGFR3 (Homo sapiens (Human), UniProt P22607). Description: LC/MS FGFR3 kobs assay (covalent modification). In kind it is biochemical. The settings on record: 500 nM FGFR3, 3 μM compound. As to the method:
The LC/MS FGFR1 and FGFR3 kobs assays were conducted as follows. 500 nM FGFR1 (Array BioPharma construct p1702; SEQ ID NO: 1, amino acids 458-765) or FGFR3 (Array BioPharma construct p1700; SEQ ID NO: 5, amino acids 449-759) were incubated with 3 μM compound in 25 mM HEPES (4-(2-hydroxyethyl)-1-piperazineethanesulfonic acid), pH 7.4, 5 mM MgCl2, 150 mM NaCl, 0.5 mM TCEP (tris(2-carboxyethyl) phosphine), and 2% DMSO in a total volume of 20 μL. At each time point, the reaction was quenched with 20 μL of 0.4% formic acid. The extent of protein modification by each compound was determined by LC/MS on an Agilent Technologies 6520 Q-TOF LC/MS. Protein signals were then automatically deconvoluted using Agilent Masshunter software. Deconvoluted mass signals were exported to Tibco Spotfire data analysis program for further processing and normalization.
Data analysis included five steps. First, the signals for the “DMSO Controls” were analyzed to determine the percent of signal associated with unmodified FGFR1 or FGFR3 at each time point. Next, the percent of the signal associated with the covalent modification was determined. Third, the average nonmodified “DMSO Control” signal was used to normalize the modified protein signals at each time point. The percent of unmodified protein was fit to an exponential decay model where A0 is the Percent Unmodified at the start of the reaction, and kobs is the observed rate constant over the time period.

For assay [1], the target named is recombinant human FGFR1 catalytic domain (Homo sapiens (Human), UniProt P11362). As to the kind of experiment: FGFR Enzyme Activity Assay (LanthaScreen TR-FRET), FGFR1. In kind it is biochemical. The settings on record: 15 μM ATP, 20 minutes incubation; read-out: FGFR1 Enz FRET IC50. On the procedure: FGFR1 kinase activity was measured by the Invitrogen LanthaScreen™ Assay technology which directly measures the amount of substrate phosphorylation by Time-resolved fluorescence energy transfer (TR-FRET) using a flourescently-labeled peptide and Europium-labeled antibody. Briefly, 200 pM His-tagged recombinant human FGFR1 catalytic domain (amino acids 308-731) (Life Technologies Cat. No. PR4660A) was incubated with 100 nM Alexa Fluor® 647-Poly-GT Peptide Substrate (Life Technologies Cat. No. PV5836) and 15 μM ATP along with test compound in a buffer consisting of 250 mM HEPES, 25 mM MgCl2, 0.05% TritonX-100, pH 7.5, and 2% DMSO. Compounds were typically prepared in a threefold serial dilution in DMSO and added to the assay to give the appropriate final concentration. After a 20 minutes incubation at 22° C., an equal volume of 2 nM LanthaScreen® Eu-PY20 Antibody (Life Technologies Cat. No. PV5691) and 10 mM EDTA was added to quench the kinase reaction and start the detection reaction. After an additional 60 minute incubation at 22° C., the reaction was measured using a PerkinElmer EnVision multimode plate reader via TR-FRET dual wavelength detection, and the percent of control (POC) calculated using a ratiometric emission factor. 100 POC was determined using no test compounds and 0 POC was determined using no enzyme. The POC values were fit to a 4-parameter logistic curve as a function of the concentration of the compound, and the IC50 value is the point where the curve crosses 50 POC.
Sequence of recombinant human FGFR1 catalytic domain (P11362 other isoform, or with tags, fused parts or gaps): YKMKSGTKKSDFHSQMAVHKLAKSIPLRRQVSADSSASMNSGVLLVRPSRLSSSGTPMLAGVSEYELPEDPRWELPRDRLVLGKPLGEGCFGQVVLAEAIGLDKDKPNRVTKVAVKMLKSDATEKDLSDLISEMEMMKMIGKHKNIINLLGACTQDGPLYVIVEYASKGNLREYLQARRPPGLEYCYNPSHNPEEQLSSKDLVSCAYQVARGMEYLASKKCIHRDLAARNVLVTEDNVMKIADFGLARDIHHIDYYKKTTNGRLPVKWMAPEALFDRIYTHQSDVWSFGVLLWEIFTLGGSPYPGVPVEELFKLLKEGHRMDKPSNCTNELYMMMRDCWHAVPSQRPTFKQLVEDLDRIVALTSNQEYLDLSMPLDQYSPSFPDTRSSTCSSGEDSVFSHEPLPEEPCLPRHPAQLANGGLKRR

Sequence of FGFR3 (P22607 449-759): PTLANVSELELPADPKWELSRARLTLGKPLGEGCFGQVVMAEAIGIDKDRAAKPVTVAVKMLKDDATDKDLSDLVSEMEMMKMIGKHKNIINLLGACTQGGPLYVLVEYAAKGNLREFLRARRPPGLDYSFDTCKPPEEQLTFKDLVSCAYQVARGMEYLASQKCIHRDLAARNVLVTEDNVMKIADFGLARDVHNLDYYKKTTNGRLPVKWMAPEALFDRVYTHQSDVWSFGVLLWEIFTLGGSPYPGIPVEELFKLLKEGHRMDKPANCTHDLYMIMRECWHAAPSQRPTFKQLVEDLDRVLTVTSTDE
Sequence of phosphorylated FGFR3 (P22607 449-759): as above
Sequence of dephosphorylated FGFR1 (P11362 458-765): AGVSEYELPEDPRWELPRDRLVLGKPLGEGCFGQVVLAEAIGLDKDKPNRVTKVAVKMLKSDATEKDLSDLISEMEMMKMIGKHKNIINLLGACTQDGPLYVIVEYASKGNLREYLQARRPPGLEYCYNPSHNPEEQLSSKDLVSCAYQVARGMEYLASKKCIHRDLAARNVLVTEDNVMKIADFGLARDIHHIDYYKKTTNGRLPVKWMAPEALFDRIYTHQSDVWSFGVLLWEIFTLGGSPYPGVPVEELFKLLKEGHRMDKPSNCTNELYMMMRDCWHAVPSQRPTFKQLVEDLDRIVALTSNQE

The term IC50 denotes the concentration that gives 50% inhibition. Take `COc1cc(Nc2ccc3ncc(-c4ccc(N5CCN(C(=O)C6(F)CN(C(=O)/C=C/CN(C)C)C6)CC5)nc4C)nc3c2)cc(OC)c1` [Example 13, (E)-1-(3-(4-(5-(7-((3,5-dimethoxyphenyl)amino)-quinoxalin-2-yl)-6-methylpyridin-2-yl)-piperazine-1-carbonyl)-3-fluoroazetidin-1-yl)-4-(dimethylamino)but-2-en-1-one]: the IC50 is 335 nM at phosphorylated FGFR3, 6620 nM at dephosphorylated FGFR1 and 2150 nM in assay [1]. For the same compound, the “FGFR3 Enz kobs” value on FGFR3 is 0.02606 min⁻¹.

With `COc1cc(Nc2ccc3ncc(-c4cnc(N5CCN(C(=O)C6(F)CN(C(=O)/C=C/CN(C)C)C6)CC5)cc4C)nc3c2)cc(OC)c1` [Example 14, (E)-1-(3-(4-(5-(7-((3,5-dimethoxyphenyl)amino)-quinoxalin-2-yl)-4-methylpyridin-2-yl)-piperazine-1-carbonyl)-3-fluoroazetidin-1-yl)-4-(dimethylamino)but-2-en-1-one], the IC50 on phosphorylated FGFR3 was found to be 123 nM; at dephosphorylated FGFR1, 4140 nM; in assay [1], 1560 nM. Further, the “FGFR3 Enz kobs” value at FGFR3 came out at 0.04226 min⁻¹.

Regarding `C=CC(=O)N1CC(F)(C(=O)N2CCN(c3cc(C)c(-c4cnc5ccc(Nc6cc(OC)cc(OC)c6)cc5n4)cn3)CC2)C1` [Example 15, 1-(3-(4-(5-(7-((3,5-dimethoxyphenyl)amino)-quinoxalin-2-yl)-4-methylpyridin-2-yl)-piperazine-1-carbonyl)-3-fluoroazetidin-1-yl)prop-2-en-1-one], the IC50 was found to be 116 nM on phosphorylated FGFR3, 2370 nM on dephosphorylated FGFR1 and 5000 nM in assay [1]. Further, the “FGFR3 Enz kobs” value on FGFR3 stood at 0.0172 min⁻¹.

For the compound `C=CC(=O)N1CC(C(=O)N2CC(n3cc(-c4cnc5ccc(Nc6cc(OC)cc(OC)c6)cc5n4)cn3)C2)C1` [Example 16, 1-(3-(3-(4-(7-((3,5-dimethoxyphenyl)amino)-quinoxalin-2-yl)-1H-pyrazol-1-yl)azetidine-1-carbonyl)azetidin-1-yl)-prop-2-en-1-one], the results for the IC50 (at phosphorylated FGFR3; at dephosphorylated FGFR1; in assay [1]) were 5 nM, 30 nM and 48 nM, respectively. In addition, the “FGFR3 Enz kobs” value on FGFR3 was found to be 0.01232 min⁻¹.

On to `COc1cc(Nc2ccc3ncc(-c4cnn(C5CCN(C(=O)C6(F)CN(C(=O)/C=C/CN(C)C)C6)CC5)c4C)nc3c2)cc(OC)c1` [Example 17, (E)-1-(3-(4-(4-(7-((3,5-dimethoxyphenyl)amino)-quinoxalin-2-yl)-5-methyl-1H-pyrazol-1-yl)piperi-dine-1-carbonyl)-3-fluoroazetidin-1-yl)-4-(dimethylamino)but-2-en-1-one], for which the IC50 on phosphorylated FGFR3 was 5 nM; at dephosphorylated FGFR1, 102 nM; in assay [1] it was 376 nM. Moreover, the “FGFR3 Enz kobs” value at FGFR3 stood at 0.08024 min⁻¹.

Regarding `C=CC(=O)N1CC(C(=O)N2CCC(n3ncc(-c4cnc5ccc(Nc6cc(OC)cc(OC)c6)cc5n4)c3C)CC2)C1` [Example 18, 1-(3-(4-(4-(7-((3,5-dimethoxyphenyl)amino)-quinoxalin-2-yl)-5-methyl-1H-pyrazol-1-yl)piperi-dine-1-carbonyl)azetidin-1-yl)prop-2-en-1-one], the IC50 stood at 18 nM on phosphorylated FGFR3, 244 nM on dephosphorylated FGFR1 and 1210 nM in assay [1]. Further, the “FGFR3 Enz kobs” value at FGFR3 turned out to be 0.01462 min⁻¹.

Consider `COc1cc(Nc2ccc3ncc(-c4cnn([C@@H]5CCN(C(=O)C6(F)CN(C(=O)/C=C/CN(C)C)C6)C5)c4)nc3c2)cc(OC)c1` [Example 19, (R,E)-1-(3-(3-(4-(7-((3,5-dimethoxyphenyl)amino)-quinoxalin-2-yl)-1H-pyrazol-1-yl)pyrrolidine-1-carbonyl)-3-fluoro-azetidin-1-yl)-4-(dimethyl-amino)but-2-en-1-one], for which the results for the IC50 (on phosphorylated FGFR3; on dephosphorylated FGFR1; in assay [1]) were 4 nM, 55 nM and 288 nM, respectively. Further, the “FGFR3 Enz kobs” value at FGFR3 worked out at 0.03902 min⁻¹.

Regarding `COc1cc(Nc2ccc3ncc(-c4cnn([C@@H]5CCN(C(=O)C6CN(C(=O)/C=C/CN(C)C)C6)C5)c4)nc3c2)cc(OC)c1` [Example 20, (R,E)-1-(3-(3-(4-(7-((3,5-dimethoxyphenyl)amino)-quinoxalin-2-yl)-1H-pyrazol-1-yl)pyrrolidine-1-carbonyl)azetidin-1-yl)-4-(dimethylamino)but-2-en-1-one], the IC50 on phosphorylated FGFR3 stood at 5 nM; at dephosphorylated FGFR1 it was 53 nM; in assay [1], 194 nM. The “FGFR3 Enz kobs” value on FGFR3 amounted to 0.00892 min⁻¹.

Take `C=CC(=O)N1CC(C(=O)N2CC[C@@H](n3cc(-c4cnc5ccc(Nc6cc(OC)cc(OC)c6)cc5n4)cn3)C2)C1` [Example 21, (R)-1-(3-(3-(4-(7-((3,5-dimethoxyphenyl)amino)-quinoxalin-2-yl)-1H-pyrazol-1-yl)pyrrolidine-1-carbonyl)azetidin-1-yl)prop-2-en-1-one]: the values for the IC50 (at phosphorylated FGFR3; at dephosphorylated FGFR1; in assay [1]) were 5 nM, 38 nM and 295 nM, respectively. Besides, the “FGFR3 Enz kobs” value on FGFR3 worked out at 0.00664 min⁻¹.

As to `COc1cc(Nc2ccc3ncc(-c4cn(C5CCN(C(=O)C6(F)CN(C(=O)/C=C/CN(C)C)C6)CC5)nc4C)nc3c2)cc(OC)c1` [Example 22, (E)-1-(3-(4-(4-(7-((3,5-dimethoxyphenyl)amino)-quinoxalin-2-yl)-3-methyl-1H-pyrazol-1-yl)-piperidine-1-carbonyl)-3-fluoroazetidin-1-yl)-4-(dimethylamino)but-2-en-1-one], the IC50 is 4 nM on phosphorylated FGFR3, 131 nM on dephosphorylated FGFR1 and 339 nM in assay [1]. For the same compound, the “FGFR3 Enz kobs” value at FGFR3 amounted to 0.05725 min⁻¹.

Take `COc1cc(Nc2ccc3ncc(-c4c(C)nn(C5CCN(C(=O)C6(F)CN(C(=O)/C=C/CN(C)C)C6)CC5)c4C)nc3c2)cc(OC)c1` [Example 23, (E)-1-(3-(4-(4-(7-((3,5-dimethoxyphenyl)amino)-quinoxalin-2-yl)-3,5-dimethyl-1H-pyrazol-1-yl)piperidine-1-carbonyl)-3-fluoroazetidin-1-yl)-4-(dimethylamino)but-2-en-1-one]: the half-inhibitory concentration (IC50) is 13 nM at phosphorylated FGFR3, 842 nM on dephosphorylated FGFR1 and 5000 nM in assay [1]. At FGFR3, the “FGFR3 Enz kobs” value amounted to 0.07588 min⁻¹.

(Values after patent US12351571B2, “Substituted quinoxaline compounds as inhibitors of FGFR tyrosine kinases” (ARRAY BIOPHARMA INC., priority 2018, dated 2025).)
